This is an account of results in article PMC5267519, “Evaluation of a Novel Renewable Hepatic Cell Model for Prediction of Clinical CYP3A4 Induction Using a Correlation-Based Relative Induction Score Approach” (Drug Metabolism and Disposition, 2017).

Data set [1] deals with CYP3A4. As to conditions: hepatocytes; cited from earlier work.
Data set [2] deals with CYP3A4. As to conditions: cited from earlier work.
In data set [3] the test system is CYP3A4. From the text:
The resulting fitting equation was used to calculate predicted in vivo AUC change for each compound. […] Prediction accuracy using HepatoCells was also compared with prediction accuracy using primary human hepatocytes.

The subject of data set [4] is CYP3A4. As to conditions: for RIS Based on Enzyme Activity: RIS = (Emax × Cmax,ub)/(EC50 + Cmax,ub).
The subject of data set [5] is CYP3A4 mRNA. As to conditions: for RIS Based on mRNA, Mean: human.
Procedure: (§1) Cryopreserved HepatoCells were thawed quickly in a 37°C water bath and transferred to Corning Culture Medium for HepatoCells supplemented with 10% fetal bovine serum and Pen/Strep (plating medium). After the cryo-freezing media was removed by centrifugation at 150g for 10 minutes, the cell pellet was resuspended in plating media and cell count was performed with trypan blue. Cells were then seeded in a Corning BioCoat Collagen I–coated plate (500,000 cells/well in 24-well plate or 80,000 cells/well in 96-well plate), and plates were incubated in a 37°C incubator with 5% CO2. […] Cells were then returned to the incubator for overnight culture.
(§2) Stock solutions of test compounds were prepared by dissolving each compound in DMSO and serially diluting the solutions in DMSO. Final working solutions were freshly prepared daily by diluting the 1000× stock solutions in culture medium. Three lots of HepatoCells culture were treated with eight concentrations of test compounds. Both enzymatic activity (testosterone 6β hydroxylase activity) and mRNA expression were measured as endpoints using LC-MS/MS and real-time reverse-transcription polymerase chain reaction, respectively.
Data set [6] relates to CYP2B6. The data set is described as follows: CYP2B6 induction response to prototypical inducer, enzyme activity, primary human hepatocytes. As to conditions: cryopreserved primary human hepatocytes, probe bupropion 250 µM.
Data set [7] concerns CYP3A4 mRNA. The data set is described as follows: in vitro. As to conditions: human.
Procedure: as §1, §2
Data set [8] concerns the target T1, human CAR (Homo sapiens, UniProt Q14994).
T1 construct: expressed in transfected cells; host or cells: primary human hepatocytes (Corning Gentest inventory), adenoviral transduction
T1 sequence (Q14994 1-352): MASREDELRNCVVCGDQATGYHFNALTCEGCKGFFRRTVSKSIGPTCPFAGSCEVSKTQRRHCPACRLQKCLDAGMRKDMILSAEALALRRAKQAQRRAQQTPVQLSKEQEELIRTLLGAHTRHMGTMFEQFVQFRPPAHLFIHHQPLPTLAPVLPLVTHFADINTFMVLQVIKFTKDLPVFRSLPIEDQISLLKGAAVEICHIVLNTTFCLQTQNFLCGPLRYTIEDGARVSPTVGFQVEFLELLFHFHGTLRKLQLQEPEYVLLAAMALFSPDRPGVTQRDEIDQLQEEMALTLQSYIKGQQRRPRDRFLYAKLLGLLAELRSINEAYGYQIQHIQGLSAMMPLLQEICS
In words: Ad-EYFP-hCAR nuclear translocation in primary human hepatocytes. It counts as cell-based. As to conditions: phenobarbital treatment.

For data set [9], the system named is CYP2B6. The data set is described as follows: CYP2B6 induction response to prototypical inducer, enzyme activity, HepatoCells. As to conditions: human, probe bupropion 250 µM.
Procedure: as §1
Data set [10] addresses T1, human CAR. In words: Ad-EYFP-hCAR nuclear translocation in HepatoCells. It counts as cell-based. As to conditions: 1 mM phenobarbital for 12 hours. The protocol:
Previous studies have used adenoviral-enhanced yellow fluorescent protein-tagged-human CAR (Ad-EYFP-hCAR) as a tool to visualize nuclear translocation of hCAR from cytoplasm in primary human hepatocytes upon exposure to phenobarbital ([Li et al., 2009]). […] The same Ad-EYFP-hCAR fusion protein model system was used to study CAR nuclear translocation in HepatoCells. A 3-day culture of HepatoCells was transduced with Ad-EYFP-hCAR for 24 hours. Infected HepatoCells were then treated with 1 mM phenobarbital for 12 hours.

The test system of data set [11] is CYP3A4 mRNA. In words: Concentration-dependent CYP3A4 mRNA induction in HepatoCells. As to conditions: for Emax / EC50: CYP3A4 mRNA fold increase, NI = no induction observed at tested concentration; for Emax: 3 consecutive days treatment, quinidine: only observed maximum fold induction; for RIS Based on mRNA: RIS = (Emax × Cmax,ub)/(EC50 + Cmax,ub); for EC50: human, nominal concentrations; for RIS Based on mRNA, Mean: mean of lots 2B, 3A, 3B; for induction response: readout not specified.
Procedure: as §1, §2

The nature of data set [12]: Solubility at test concentrations in induction assay. It counts as physicochemical. As to conditions: at 33 μM and 100 μM. The protocol: Only curve fitting with correlation coefficient (R^2) > 0.85 is accepted. At high concentrations for some compounds, if toxicity or insolubility becomes obvious, such data are excluded from curve fitting. Following the same approach as described by [Zhang et al. (2014)] and [Fahmi and Ripp (2010)], for data sets that show no apparent plateau, the observed maximum fold increase is accepted as Emax to avoid extrapolating too much above the experimental values and EC50 is calculated accordingly from the fitting curve.

For another data set, the system named is PXR. On the set-up: method as in Luo et al. (2002). As to conditions: probenecid concentration up to 50 μM; ref Luo et al. (2002); cited from earlier work.
Details of data set [13]: method as in Zhang et al., 2014. As to conditions: from the literature; ref Zhang et al., 2014; cited from earlier work.
In data set [14] the test system is CYP3A4. On the set-up: method as in Luo et al. (2002). As to conditions: probenecid concentration up to 20 μM; ref Luo et al. (2002); cited from earlier work.
Where [15] appears, read: clinical DDI, decrease in AUC of victim drug (midazolam or nonmidazolam), ref Zhang et al., 2014.
[16] abbreviates: Lot 2B HepatoCells, RIS calibration curve.
Setting [17] is: Lot 3A HepatoCells, RIS calibration curve.
[18] abbreviates: Lot 3B HepatoCells, RIS calibration curve.

Where “and” joins values, the source holds several entries; their conditions need not be identical. Equal entries are not always repeated. Where two headings read alike, the source gives them in different places.

A word on the fold induction: it is the ratio of treated to control signal. A low value points to a weak induction. What is called EC50 is the concentration that produces a half-maximal response.

With `Clc1ccccc1C(c1ccccc1)(c1ccccc1)n1ccnc1` [Clotrimazole], in the data set on CYP3A4 [1], the “Emax, CYP3A4 enzyme activity” value was 3.1- to 3.3 fold. For the same molecule, in the data set on CYP3A4 [2] (human, in vivo), the “Observed % AUC Change” value was 9.7%. In addition, in the data set with CYP3A4 [3], the “Predicted % AUC Change Based on Activity” value was 0% and the “Predicted % AUC Change Based on mRNA” value was 0.00%. Besides, in the data set with CYP3A4 [4], the “CYP3A4 enzyme activity induction response (in words)” value is listed as “did not increase”. Besides, in the data set with CYP3A4 mRNA [5], the “CYP3A4 mRNA expression induction response (in words)” value was “induced an increase” and the “RIS Based on mRNA, Mean” value was found to be 0.0044.

In the data set with CYP2B6 [6], `CCC1(c2ccccc2)C(=O)NC(=O)NC1=O` [Phenobarbital] came in with a fold induction at 72 h, 1 mM of 7.8. Also, in the data set with CYP3A4 [2] (human, in vivo), the “Observed % AUC Change” value is 61%. In addition, in the data set with CYP3A4 [3], the “Predicted % AUC Change Based on Activity” value is 96% and 98%; the “Predicted % AUC Change Based on mRNA” value was 98% and 95%; the “Predicted AUC change using HepatoCells (range of lots)” value was 95–98%. The EC50 with CYP3A4 mRNA [7] was found to be 775 µM. In addition, in the data set on CYP3A4 [4] (human), the “RIS Based on Enzyme Activity, Mean” value is 3.7. Besides, in the data set with CYP3A4 mRNA [5], the “RIS Based on mRNA, Mean” value worked out at 4.3. Moreover, on human CAR [8], the “EYFP-hCAR localisation after treatment” value was “relocates to the cell nuclei”. Also, the fold induction at 72 h, 1 mM in the data set with CYP2B6 [9] worked out at 5. On human CAR [10], the “EYFP-hCAR localisation after treatment” value is “relocates to the cell nuclei”.

For the molecule `CCc1ccc(CCOc2ccc(CC3SC(=O)NC3=O)cc2)nc1` (stereo not shown) [Pioglitazone], the Emax came out at 33 Fold with CYP3A4 mRNA [11] (Lot 2B HepatoCells), 31 Fold in the data set with CYP3A4 mRNA [11] (Lot 3A HepatoCells) and 15 Fold in the data set on CYP3A4 mRNA [11] (Lot 3B HepatoCells). Moreover, the entries for the “RIS Based on mRNA” value in the data set with CYP3A4 mRNA [11] (Lot 2B), in the data set on CYP3A4 mRNA [11] (Lot 3A) and in the data set with CYP3A4 mRNA [11] (Lot 3B) were 0.28, 0.37 and 0.21, respectively. Also, the EC50 was 3.3 µM with CYP3A4 mRNA [11] (EC50, Lot 2B HepatoCells); 2.3 µM with CYP3A4 mRNA [11] (EC50, Lot 3A HepatoCells); 2 µM in the data set with CYP3A4 mRNA [11] (EC50, Lot 3B HepatoCells). For the same molecule, the “RIS Based on mRNA, Mean” value in the data set with CYP3A4 mRNA [11] is 0.29. Also, the solubility entry in data set [12] is recorded as “insoluble”. Also, in the data set with CYP3A4 [2] (setting [15]), the “Observed % AUC Change” value is reported as 26%. In addition, the “Predicted % AUC Change Based on Activity” value in the data set with CYP3A4 [3] (setting [16]) is reported as 17%; in the data set on CYP3A4 [3] (setting [17]) it was 23%; with CYP3A4 [3] (setting [18]), 34%. Also, the figures for the “Predicted % AUC Change Based on mRNA” value in the data set with CYP3A4 [3] (setting [16]), in the data set on CYP3A4 [3] (setting [17]) and in the data set with CYP3A4 [3] (setting [18]) were 36%, 35% and 29%, respectively. The “Predicted AUC change using enzyme activity data (range of lots)” value with CYP3A4 [3] (three lots of HepatoCells) is reported as 17–34%. Besides, the “Predicted AUC change using mRNA data (range of lots)” value with CYP3A4 [3] (three lots of HepatoCells) was 29–36%. The “RIS Based on Enzyme Activity” value is on record as 0.12 in the data set with CYP3A4 [4] (Lot 2B), 0.20 in the data set with CYP3A4 [4] (Lot 3A) and 0.28 in the data set with CYP3A4 [4] (Lot 3B). Besides, the “RIS Based on Enzyme Activity, Mean” value in the data set on CYP3A4 [4] (mean of lots 2B, 3A, 3B) is given as 0.2.

As to `CCCN(CCC)S(=O)(=O)c1ccc(C(=O)O)cc1` [Probenecid], the “Emax, mRNA expression (all lots)” value in the data set on CYP3A4 mRNA [11] (HepatoCells) was “more than 20 fold”. Also, the induction response result in the data set with CYP3A4 mRNA [11] (HepatoCells, probenecid at 0.1–11 μM, significant = >twofold) is on record as “did not exhibit significant induction response”; in the data set on CYP3A4 mRNA [11] (HepatoCells, probenecid concentration higher than 33 μM) it was “strong induction”. The Emax with CYP3A4 mRNA [11] (Lot 2B HepatoCells) stood at 25 Fold; with CYP3A4 mRNA [11] (Lot 3A HepatoCells) it was 26 Fold; in the data set on CYP3A4 mRNA [11] (Lot 3B HepatoCells), 22 Fold. Further, the entries for the “RIS Based on mRNA” value in the data set with CYP3A4 mRNA [11] (Lot 2B), in the data set on CYP3A4 mRNA [11] (Lot 3A) and in the data set on CYP3A4 mRNA [11] (Lot 3B) were 2.8, 3.2 and 2.4, respectively. Besides, the concentration for a half-maximal effect (EC50) in the data set on CYP3A4 mRNA [11] (EC50, Lot 2B HepatoCells) came to 187 µM; in the data set on CYP3A4 mRNA [11] (EC50, Lot 3A HepatoCells), 176 µM; in the data set on CYP3A4 mRNA [11] (EC50, Lot 3B HepatoCells), 195 µM. Besides, the “RIS Based on mRNA, Mean” value with CYP3A4 mRNA [11] was 2.8. For the same molecule, the “activation of PXR” value in the data set on PXR is reported as “no activation of PXR”. Besides, the “Observed % AUC Change” value with CYP3A4 [2] (setting [15]) is on record as 20%. The “Predicted % AUC Change Based on Activity” value in the data set on CYP3A4 [3] (setting [16]) is recorded as 96%; with CYP3A4 [3] (setting [17]), 94%; with CYP3A4 [3] (setting [18]), 83%. Also, the results for the “Predicted % AUC Change Based on mRNA” value in the data set on CYP3A4 [3] (setting [16]), in the data set on CYP3A4 [3] (setting [17]) and in the data set on CYP3A4 [3] (setting [18]) were 98%, 98% and 95%, respectively. In addition, the “Emax, enzyme activity (all lots)” value in the data set on CYP3A4 [4] (HepatoCells) is recorded as 5.9- to 11.9 fold. For the same molecule, the “RIS Based on Enzyme Activity” value in the data set with CYP3A4 [4] (Lot 2B) turned out to be 1.5; in the data set on CYP3A4 [4] (Lot 3A), 1.0; with CYP3A4 [4] (Lot 3B), 0.8. The “RIS Based on Enzyme Activity, Mean” value in the data set on CYP3A4 [4] (mean of lots 2B, 3A, 3B) was determined as 1.1. Also, in data set [13], the “unbound Cmax” value was 28 µM. In the data set with CYP3A4 [14], the “induction of CYP3A4 transcript or enzyme activity” value is “no activation of PXR or induction of CYP3A4 transcript or enzyme activity”.
